Data: US20250049798A1, “WEE1 PROTEIN KINASE DEGRADATION AGENT AND USE THEREOF” (HANGZHOU GLUBIO PHARMACEUTICAL CO. LTD., priority 2021, published 2025)
≈ marks a conversion by molar mass, not a printed value.

Target: HiBiT tagged Wee1 (Homo sapiens, UniProt P30291)
Assay: Wee1 protein degradation assay (HiBiT assay)
Format: cell-based
Details: engineered HT-1080 cells, 20 hours

HiBiT tagged Wee1, sequence (P30291 whole entry): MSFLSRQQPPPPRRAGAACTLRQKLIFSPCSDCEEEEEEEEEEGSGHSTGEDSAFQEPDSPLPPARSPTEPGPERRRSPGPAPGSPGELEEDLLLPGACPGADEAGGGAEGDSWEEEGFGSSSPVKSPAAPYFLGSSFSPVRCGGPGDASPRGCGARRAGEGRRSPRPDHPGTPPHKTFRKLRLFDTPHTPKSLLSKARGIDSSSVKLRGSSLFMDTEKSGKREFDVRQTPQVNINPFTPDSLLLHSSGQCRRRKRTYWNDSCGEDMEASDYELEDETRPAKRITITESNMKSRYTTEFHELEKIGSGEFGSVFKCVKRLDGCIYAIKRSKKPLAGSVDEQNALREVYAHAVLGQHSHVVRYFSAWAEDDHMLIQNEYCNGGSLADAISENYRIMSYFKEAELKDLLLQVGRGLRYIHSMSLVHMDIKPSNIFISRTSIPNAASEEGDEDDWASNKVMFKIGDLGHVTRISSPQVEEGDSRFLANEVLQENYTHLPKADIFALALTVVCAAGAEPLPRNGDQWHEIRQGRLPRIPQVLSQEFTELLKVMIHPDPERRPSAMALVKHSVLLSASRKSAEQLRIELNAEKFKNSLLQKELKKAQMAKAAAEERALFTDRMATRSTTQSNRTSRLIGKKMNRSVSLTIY

DC50 [nM] | SMILES
< 100 | C=CCn1c(=O)c2cnc(Nc3ccc(N4CCC(CN5CCC(c6cccc7c6n(C)c(=O)n7C6CCC(=O)NC6=O)CC5)CC4)cc3)nc2n1-c1cccc(C(C)(C)O)n1 (stereo not shown) [Compound 55]
< 100 | C=CCn1c(=O)c2cnc(Nc3ccc(N4CCC(CN5CCN(c6ccc(NC7CCC(=O)NC7=O)cc6F)CC5)CC4)cc3)nc2n1-c1cccc(C(C)(C)O)n1 (stereo not shown) [Compound 71]

Same assay, conditions: engineered HT-1080 cells, 20 hours; maximum percentage of Wee1 degradation; read-out: HiBiT Wee1: Dmax

Dmax [%] | SMILES
50 to 75 | C=CCn1c(=O)c2cnc(Nc3ccc(N4CCC(CN5CCC(c6cccc7c6n(C)c(=O)n7C6CCC(=O)NC6=O)CC5)CC4)cc3)nc2n1-c1cccc(C(C)(C)O)n1 (stereo not shown) [Compound 55]
> 75 | C=CCn1c(=O)c2cnc(Nc3ccc(N4CCC(CN5CCN(c6ccc(NC7CCC(=O)NC7=O)cc6F)CC5)CC4)cc3)nc2n1-c1cccc(C(C)(C)O)n1 (stereo not shown) [Compound 71]

System: not listed separately
Assay: Determination of kinetic solubility
Format: physicochemical
Details: PBS, aqueous buffer, kinetic from dmso stock; pH 3.0; shaking at 25° C. for 2 hours; read-out: Kinetic solubility (μM) pH 3.0
Protocol: An aliquot of 30 μL stock solution (10 mM) was placed in order into their proper 96-well rack. 970 μL of PBS was added into each vial of the cap-less solubility sample plate. The assay was performed in duplicate. In each vial, a stir stick was added and sealed with a molded PTFE/Silicone plug. […] Plugs were removed after 2 hours and the stir sticks were removed using a big magnet. Then the samples were transferred from the solubility sample plate into the filter plate. All the samples were filtered using the vacuum manifold. An aliquot of 5 μL filtrate was mixed with 5 μL DMSO and 490 μL of a mixture of H2O and acetonitrile (v:v, 1:1) containing internal standard. A certain proportion of ultrapure water was used to dilute according to the peak shape. The dilution factor was changed according to the solubility values and the LC-MS/MS signals.
An aliquot of 6 μL stock solution (10 mM in DMSO) was transferred from standard (STD) stock plate into a new plate, and then 194 μL of DMSO was added to get a STD working solution of 300 μM. Then 5 μL of 300 μM working solution was mixed with 5 μL of DMSO and 490 μL of a mixture of H2O and acetonitrile (v:v, 1:1) containing internal standard and the final STD concentration was 3 μM. The STD concentration were changed according to the LC-MS/MS signals.
The sample plate was put into the autosampler and the test compound concentration was determined by LC-MS/MS.

solubility kinetic at 2 h [µM] | SMILES
194 (≈ 163 µg/mL) | C=CCn1c(=O)c2cnc(Nc3ccc(N4CCC(CN5CCC(c6cccc7c6n(C)c(=O)n7C6CCC(=O)NC6=O)CC5)CC4)cc3)nc2n1-c1cccc(C(C)(C)O)n1 (stereo not shown) [Compound 55]

Same assay, conditions: PBS, aqueous buffer, kinetic from dmso stock; pH 5.0; shaking at 25° C. for 2 hours; read-out: Kinetic solubility (μM) pH 5.0

solubility kinetic at 2 h [µM] | SMILES
55.7 (≈ 46.8 µg/mL) | C=CCn1c(=O)c2cnc(Nc3ccc(N4CCC(CN5CCC(c6cccc7c6n(C)c(=O)n7C6CCC(=O)NC6=O)CC5)CC4)cc3)nc2n1-c1cccc(C(C)(C)O)n1 (stereo not shown) [Compound 55]

System: not listed separately
Assay: Pharmacokinetic study in mice (IV and PO)
Format: in vivo
Details: PO (10 mg/kg) vs IV (2 mg/kg), male CD1 mice
Protocol: Objective: the objective of this study was to determine the pharmacokinetics of test compound following intravenous (IV) and oral (PO) administration to male CD1 mice.
Materials: Male CD1 mouse (20-30 g, 6-8 weeks, Zhejiang Vital River Laboratory Animal Technology Co., Ltd.).
The CD1 mice were administered with the test article intravenously via tail vein at 2 mg/kg or orally at 10 mg/kg. The animals had free access to food and water. After dose administration, blood was collected from the dorsal metatarsal vein at 5 min (0.0833 h, IV only), 15 min (0.25 h), 30 min (0.5 h), 60 min (1 h), 2 h, 4 h, 6 h, 8 h and 24 h. Blood samples were placed in an anticoagulant tube with EDTA-K2, mixed adequately and centrifuged at 4° C., 4000 g for 5 minutes to get the plasma. The plasma samples were stored at −75±15° C. until analyzed by LC-MS/MS. The PK parameters were calculated using non-compartmental model by Phoenix WinNonlin 6.1 (Linear/log trapezoidal).

F [%] | SMILES
38.9 | C=CCn1c(=O)c2cnc(Nc3ccc(N4CCC(CN5CCC(c6cccc7c6n(C)c(=O)n7C6CCC(=O)NC6=O)CC5)CC4)cc3)nc2n1-c1cccc(C(C)(C)O)n1 (stereo not shown) [Compound 55]
75.4 | C=CCn1c(=O)c2cnc(Nc3ccc(N4CCC(CN5CCN(c6ccc(NC7CCC(=O)NC7=O)cc6F)CC5)CC4)cc3)nc2n1-c1cccc(C(C)(C)O)n1 (stereo not shown) [Compound 71]

Same assay, conditions: mouse, plasma; IV (2 mg/kg), male CD1 mice

AUC(0-inf) [ng·h/mL] | clearance [mL/min/kg] | SMILES
6980 | 4.78 | C=CCn1c(=O)c2cnc(Nc3ccc(N4CCC(CN5CCC(c6cccc7c6n(C)c(=O)n7C6CCC(=O)NC6=O)CC5)CC4)cc3)nc2n1-c1cccc(C(C)(C)O)n1 (stereo not shown) [Compound 55]
6730 | 4.95 | C=CCn1c(=O)c2cnc(Nc3ccc(N4CCC(CN5CCN(c6ccc(NC7CCC(=O)NC7=O)cc6F)CC5)CC4)cc3)nc2n1-c1cccc(C(C)(C)O)n1 (stereo not shown) [Compound 71]

Same assay, conditions: mouse, plasma; IV (2 mg/kg), male CD1 mice; read-out: T½ (converted)

half-life [h] | SMILES
5.7 | C=CCn1c(=O)c2cnc(Nc3ccc(N4CCC(CN5CCC(c6cccc7c6n(C)c(=O)n7C6CCC(=O)NC6=O)CC5)CC4)cc3)nc2n1-c1cccc(C(C)(C)O)n1 (stereo not shown) [Compound 55]
2.79 | C=CCn1c(=O)c2cnc(Nc3ccc(N4CCC(CN5CCN(c6ccc(NC7CCC(=O)NC7=O)cc6F)CC5)CC4)cc3)nc2n1-c1cccc(C(C)(C)O)n1 (stereo not shown) [Compound 71]

Same assay, conditions: mouse, plasma; PO (10 mg/kg), male CD1 mice

AUC(0-inf) [ng·h/mL] | Cmax [ng/mL] | SMILES
13600 | 902 | C=CCn1c(=O)c2cnc(Nc3ccc(N4CCC(CN5CCC(c6cccc7c6n(C)c(=O)n7C6CCC(=O)NC6=O)CC5)CC4)cc3)nc2n1-c1cccc(C(C)(C)O)n1 (stereo not shown) [Compound 55]
25400 | 2730 | C=CCn1c(=O)c2cnc(Nc3ccc(N4CCC(CN5CCN(c6ccc(NC7CCC(=O)NC7=O)cc6F)CC5)CC4)cc3)nc2n1-c1cccc(C(C)(C)O)n1 (stereo not shown) [Compound 71]

Same assay, conditions: mouse, plasma; PO (10 mg/kg), male CD1 mice; read-out: T½ (converted)

half-life [h] | SMILES
5.2 | C=CCn1c(=O)c2cnc(Nc3ccc(N4CCC(CN5CCC(c6cccc7c6n(C)c(=O)n7C6CCC(=O)NC6=O)CC5)CC4)cc3)nc2n1-c1cccc(C(C)(C)O)n1 (stereo not shown) [Compound 55]
3 | C=CCn1c(=O)c2cnc(Nc3ccc(N4CCC(CN5CCN(c6ccc(NC7CCC(=O)NC7=O)cc6F)CC5)CC4)cc3)nc2n1-c1cccc(C(C)(C)O)n1 (stereo not shown) [Compound 71]

System: NCI-H1048 cells
Assay: NCI-H1048 cell proliferation assay (CTG assay)
Format: cell-based
Details: Homo sapiens, 120 hours, read-out: CTG cellular assay_H1048: IC50
Summary of the method: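 NCI-H1048 small cell lung cancer cells (RPMI-1640, 10% FBS) were exposed to 10-point half-log compound dilutions from 10 μM to 0.316 nM for 120 h at 37° C., 5% CO2. Viability was read by CellTiter-Glo luminescence and normalized to DMSO as percent of control. EC50 and DC50 were fitted with a four-parameter logistic model.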

IC50 [nM] | SMILES
≤ 25 | C=CCn1c(=O)c2cnc(Nc3ccc(N4CCC(CN5CCC(c6cccc7c6n(C)c(=O)n7C6CCC(=O)NC6=O)CC5)CC4)cc3)nc2n1-c1cccc(C(C)(C)O)n1 (stereo not shown) [Compound 55]
≤ 25 | C=CCn1c(=O)c2cnc(Nc3ccc(N4CCC(CN5CCN(c6ccc(NC7CCC(=O)NC7=O)cc6F)CC5)CC4)cc3)nc2n1-c1cccc(C(C)(C)O)n1 (stereo not shown) [Compound 71]

System: not listed separately
Assay: Permeability study in MDCKII cells (bidirectional A to B and B to A)
Format: in vitro ADME, Canine
Details: dog, MDCK, pH 7.4
Protocol: MDCKII (Madin-Darby Canine Kidney cell line, wild type) cell was obtained from the Netherlands Cancer Institute, which was used for P-gp substrates or inhibitors screening and predicting the permeability of compounds with high efflux barriers such as duodenum, blood-brain barrier, hepatocyte nucleus and renal unit. The MDCKII cells with 10 to 22 passages were used for the permeability investigation.
MDCKII cells were cultured using Minimum Essential Media (MEM) at 37° C., 5% CO2 and 95% relative humidity. The cells were seeded in Transwell plate with 5.45×10^5 cells/cm^2. Then the cells were incubated in CO2 Incubator for 4-7 days for transport studies.
The complete medium was prepared by adding 10% FBS (fetal bovine serum) and 1% glutamax-1 to 500 ml MEM.
The dose concentrations of test compounds and control compounds were 1 μM. The bidirectional (A to B and B to A) permeability was evaluated. All incubations are performed in duplicate.
The regents were pre-incubated at 37±1° C. for 30 minutes. To determine the transport rate from apical to basolateral direction, 125 μL working solution (1 μM) was added to the Transwell insert (apical compartment), and 50 μL sample was immediately transferred from the apical compartment to a new 96-well plate as the initial donor sample (A-B) and mixed with 200 μL of acetonitrile or methanol containing IS. And 235 μL HBSS (10 mM HEPES, pH 7.4) was added to the receiver plate (basolateral compartment). To determine the transport rate from basolateral to apical direction, 285 μL working solution (1 μM) was added to the receiver plate (basolateral compartment), and 50 μL sample was immediately transferred from the basolateral compartment to a new 96-well plate as the initial donor sample (B-A) and mixed with 200 μL of acetonitrile or methanol containing IS. And 75 μL HBSS (10 mM HEPES, pH 7.4) was added to the Transwell insert (apical compartment). Then the plate was incubated at […] with 5% CO2 and 95% relative humidity for 120 minutes.
At the end of incubation, 50 μL samples from donor and receiver sides were transferred into a new 96-well plate. 200 μL of ice-cold acetonitrile or methanol containing appropriate internal standards (IS) was mixed with the samples. After vortex for 10 minutes, the samples are centrifuged at 3220 g for 40 minutes. An aliquot of 100 μL of the supernatant was mixed with appropriate volume of ultra-pure water and was analyzed by LC-MS/MS. All incubations are performed in duplicate.
The integrity of MDCKII cells were checked by Lucifer Yellow Rejection Assay after transport assay. The plate(s) were incubated with Lucifer Yellow solution at 37° C. for 30 minutes. The Lucifer Yellow fluorescence (to monitor monolayer integrity) was measured in a fluorescence plate reader at 480 nm excitation and 530 nm emission.
Test and reference compounds (metoprolol and digoxin) were semi-quantitatively analyzed, and the peak area ratio of the analyte and the internal standard was used to evaluate the concentration of the compounds.

efflux ratio at 120 min, 1 μM | SMILES
2.88 | C=CCn1c(=O)c2cnc(Nc3ccc(N4CCC(CN5CCC(c6cccc7c6n(C)c(=O)n7C6CCC(=O)NC6=O)CC5)CC4)cc3)nc2n1-c1cccc(C(C)(C)O)n1 (stereo not shown) [Compound 55]

Same assay, conditions: dog, MDCK, pH 7.4, 120 minutes, apical to basolateral

Papp A→B at 120 min, 1 μM [×10⁻⁶ cm/s] | SMILES
2.48 | C=CCn1c(=O)c2cnc(Nc3ccc(N4CCC(CN5CCC(c6cccc7c6n(C)c(=O)n7C6CCC(=O)NC6=O)CC5)CC4)cc3)nc2n1-c1cccc(C(C)(C)O)n1 (stereo not shown) [Compound 55]

Same assay, conditions: dog, MDCK, pH 7.4, 120 minutes, basolateral to apical

Papp B→A at 120 min, 1 μM [×10⁻⁶ cm/s] | SMILES
7.09 | C=CCn1c(=O)c2cnc(Nc3ccc(N4CCC(CN5CCC(c6cccc7c6n(C)c(=O)n7C6CCC(=O)NC6=O)CC5)CC4)cc3)nc2n1-c1cccc(C(C)(C)O)n1 (stereo not shown) [Compound 55]
